As a reminder, the IC50 is the concentration that inhibits the measured activity by half.

SMILES strings stand for the structures.

Assay [1] addresses Acetylcholinesterase (Homo sapiens, UniProt P22303). The assay can be described thus: Inhibition of recombinant human AChE using acetylthiocholine as substrate preincubated for 20 mins followed by substrate addition measured after 6 mins by Ellman's method.
Assay [2] addresses Acetylcholinesterase (Electrophorus electricus, UniProt O42275). The assay can be described thus: Inhibition of electric eel AChE using acetylthiocholine iodide as substrate preincubated for 5 mins followed by substrate addition measured after 2 mins by Ellman's method.
Assay [3] concerns the target Acetylcholinesterase and butyrylcholinesterase (AChE and BChE) (Rattus norvegicus) (UniProt P37136+Q9JKC1). Kind of assay: Selectivity index, ratio of IC50 for rat AChE to IC50 for rat BChE. In kind it is protein assay.
The target in assay [4] is T1, Acetylcholinesterase (Rattus norvegicus, UniProt P37136).
T1 sequence (P37136 whole entry): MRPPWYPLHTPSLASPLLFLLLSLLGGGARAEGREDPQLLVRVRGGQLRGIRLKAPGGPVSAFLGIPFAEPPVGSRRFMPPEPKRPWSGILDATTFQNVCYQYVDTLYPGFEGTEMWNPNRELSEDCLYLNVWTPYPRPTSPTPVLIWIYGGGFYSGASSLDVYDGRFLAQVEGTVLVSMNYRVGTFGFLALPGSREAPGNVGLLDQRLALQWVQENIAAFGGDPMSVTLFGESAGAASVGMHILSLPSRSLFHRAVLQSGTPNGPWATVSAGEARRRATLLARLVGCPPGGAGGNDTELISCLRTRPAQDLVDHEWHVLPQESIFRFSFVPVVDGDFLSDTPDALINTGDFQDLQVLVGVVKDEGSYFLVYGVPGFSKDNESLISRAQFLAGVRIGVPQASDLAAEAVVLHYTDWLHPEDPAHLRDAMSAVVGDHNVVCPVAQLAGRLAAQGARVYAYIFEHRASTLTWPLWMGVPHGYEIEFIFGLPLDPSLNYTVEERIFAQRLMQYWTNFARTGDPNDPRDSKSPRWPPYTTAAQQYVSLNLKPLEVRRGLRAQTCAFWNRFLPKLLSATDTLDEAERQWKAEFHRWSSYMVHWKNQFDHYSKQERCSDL
The assay can be described thus: Inhibition of rat AChE.

For assay [5], the target named is T2, Butyrylcholinesterase (Rattus norvegicus, UniProt Q9JKC1). The assay can be described thus: Inhibition of rat BChE.
The target of assay [6] is T2, Butyrylcholinesterase. Kind of assay: Inhibition of Sprague-Dawley rat serum BChE using butyrylthiocholine iodide as substrate incubated for 15 mins by Ellman's method. In general terms: Ellman's reagent forms a yellow product with free thiols.
Assay [7] has as its target T1, Acetylcholinesterase. The assay can be described thus: Inhibition of Sprague-Dawley rat cortex AChE using acetylthiocholine iodide as substrate incubated for 15 mins in presence of iso-OMPA inhibitor by Ellman's method.
Assay [8] has as its target T3, Amine oxidase [flavin-containing] A (Homo sapiens, UniProt P21397).
T3 sequence (P21397 whole entry): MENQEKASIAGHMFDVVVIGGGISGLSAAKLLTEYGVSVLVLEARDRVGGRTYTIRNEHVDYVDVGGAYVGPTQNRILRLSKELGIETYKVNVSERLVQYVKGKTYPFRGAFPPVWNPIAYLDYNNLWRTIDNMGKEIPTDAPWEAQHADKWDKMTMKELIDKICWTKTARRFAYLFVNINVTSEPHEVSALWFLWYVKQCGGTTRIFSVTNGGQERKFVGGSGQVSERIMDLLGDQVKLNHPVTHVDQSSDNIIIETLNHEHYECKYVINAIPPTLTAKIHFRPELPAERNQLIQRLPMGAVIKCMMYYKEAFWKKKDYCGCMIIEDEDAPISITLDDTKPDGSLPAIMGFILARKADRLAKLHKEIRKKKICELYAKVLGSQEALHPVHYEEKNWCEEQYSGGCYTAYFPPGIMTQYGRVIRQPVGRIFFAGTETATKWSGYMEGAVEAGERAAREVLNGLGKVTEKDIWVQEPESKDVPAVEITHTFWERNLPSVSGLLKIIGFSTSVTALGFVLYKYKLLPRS
The assay can be described thus: Displacement of 14C-5-hydroxytryptamine creatinine disulfate from MAO-A (unknown origin) preincubated for 60 mins followed by substrate addition measured after 30 mins in presence of selegiline by liquid scintillation counting method. On the technique in general: In a radioligand displacement assay an active substance lowers the binding of a labelled ligand.

The nature of assay [9]: Selectivity index, ratio of IC50 for human red blood cell AChE to IC50 for equine serum BChE.
The target in assay [10] is T4, Cholinesterase (Equus caballus, UniProt P81908). The assay can be described thus: Inhibition of equine serum BChE using butyrylthiocholine as substrate preincubated for 60 mins by Ellman's method.
For assay [11], the target named is T5, Amine oxidase [flavin-containing] B (Homo sapiens, UniProt P27338).
T5 sequence (P27338 whole entry): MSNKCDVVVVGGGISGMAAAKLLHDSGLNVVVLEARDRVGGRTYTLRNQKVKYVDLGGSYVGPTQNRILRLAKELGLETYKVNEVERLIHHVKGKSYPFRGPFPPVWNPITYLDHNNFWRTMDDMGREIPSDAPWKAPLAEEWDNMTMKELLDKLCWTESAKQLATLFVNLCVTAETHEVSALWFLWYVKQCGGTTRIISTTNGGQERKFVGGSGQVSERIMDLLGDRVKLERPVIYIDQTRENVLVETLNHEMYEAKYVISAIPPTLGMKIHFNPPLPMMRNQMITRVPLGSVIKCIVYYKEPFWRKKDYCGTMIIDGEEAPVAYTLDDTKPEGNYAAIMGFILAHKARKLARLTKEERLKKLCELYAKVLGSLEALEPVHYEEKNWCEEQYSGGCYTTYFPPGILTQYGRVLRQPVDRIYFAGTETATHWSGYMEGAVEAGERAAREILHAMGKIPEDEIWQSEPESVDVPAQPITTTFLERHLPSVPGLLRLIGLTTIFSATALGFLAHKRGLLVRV
The assay can be described thus: Displacement of 14C-phenylethylamine from MAO-B (unknown origin) preincubated for 60 mins followed by substrate addition measured after 20 mins in presence of clorgyline by liquid scintillation counting method.

For assay [12], the target named is T4, Cholinesterase. Kind of assay: Inhibition of horse BChE using butyrylthiocholine as substrate measured for 5 mins by Ellman's method.

T2 sequence (Q9JKC1 whole entry): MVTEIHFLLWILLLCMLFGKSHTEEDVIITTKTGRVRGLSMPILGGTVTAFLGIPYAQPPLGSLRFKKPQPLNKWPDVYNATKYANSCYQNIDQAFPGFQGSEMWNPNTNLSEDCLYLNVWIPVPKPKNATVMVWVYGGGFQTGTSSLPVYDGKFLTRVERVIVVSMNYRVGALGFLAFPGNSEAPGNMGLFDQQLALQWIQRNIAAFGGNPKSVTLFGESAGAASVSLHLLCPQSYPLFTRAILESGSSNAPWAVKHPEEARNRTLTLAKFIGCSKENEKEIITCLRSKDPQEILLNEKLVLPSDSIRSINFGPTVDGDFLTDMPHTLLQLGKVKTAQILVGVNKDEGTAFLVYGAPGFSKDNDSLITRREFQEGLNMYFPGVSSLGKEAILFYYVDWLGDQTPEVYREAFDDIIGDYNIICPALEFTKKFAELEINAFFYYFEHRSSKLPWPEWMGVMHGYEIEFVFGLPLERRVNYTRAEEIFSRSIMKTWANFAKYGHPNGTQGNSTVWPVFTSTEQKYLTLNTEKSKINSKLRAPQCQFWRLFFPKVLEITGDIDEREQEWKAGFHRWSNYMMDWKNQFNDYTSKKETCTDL
T4 sequence (P81908 whole entry): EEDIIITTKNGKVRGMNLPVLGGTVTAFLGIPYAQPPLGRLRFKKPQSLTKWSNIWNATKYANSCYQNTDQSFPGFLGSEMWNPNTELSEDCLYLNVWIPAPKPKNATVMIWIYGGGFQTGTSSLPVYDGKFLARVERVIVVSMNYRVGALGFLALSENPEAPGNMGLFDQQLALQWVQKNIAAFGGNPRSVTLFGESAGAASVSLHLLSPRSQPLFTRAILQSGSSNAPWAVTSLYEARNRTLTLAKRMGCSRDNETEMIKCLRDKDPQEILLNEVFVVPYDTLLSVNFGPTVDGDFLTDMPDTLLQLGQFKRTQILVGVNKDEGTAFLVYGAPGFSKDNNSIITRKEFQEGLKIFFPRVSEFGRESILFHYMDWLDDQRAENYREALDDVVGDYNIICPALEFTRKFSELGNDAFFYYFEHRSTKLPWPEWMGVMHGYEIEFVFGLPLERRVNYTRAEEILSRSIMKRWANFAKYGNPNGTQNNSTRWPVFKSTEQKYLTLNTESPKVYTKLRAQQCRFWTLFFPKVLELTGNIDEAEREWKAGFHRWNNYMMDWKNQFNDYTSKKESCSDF
Sequence of Acetylcholinesterase and butyrylcholinesterase (AChE and BChE) (Rattus norvegicus) (Q9JKC1 1-597, one chain of several): as the sequence (Q9JKC1 whole entry) above
Sequence of Acetylcholinesterase (Electrophorus electricus, UniProt O42275) (O42275 whole entry): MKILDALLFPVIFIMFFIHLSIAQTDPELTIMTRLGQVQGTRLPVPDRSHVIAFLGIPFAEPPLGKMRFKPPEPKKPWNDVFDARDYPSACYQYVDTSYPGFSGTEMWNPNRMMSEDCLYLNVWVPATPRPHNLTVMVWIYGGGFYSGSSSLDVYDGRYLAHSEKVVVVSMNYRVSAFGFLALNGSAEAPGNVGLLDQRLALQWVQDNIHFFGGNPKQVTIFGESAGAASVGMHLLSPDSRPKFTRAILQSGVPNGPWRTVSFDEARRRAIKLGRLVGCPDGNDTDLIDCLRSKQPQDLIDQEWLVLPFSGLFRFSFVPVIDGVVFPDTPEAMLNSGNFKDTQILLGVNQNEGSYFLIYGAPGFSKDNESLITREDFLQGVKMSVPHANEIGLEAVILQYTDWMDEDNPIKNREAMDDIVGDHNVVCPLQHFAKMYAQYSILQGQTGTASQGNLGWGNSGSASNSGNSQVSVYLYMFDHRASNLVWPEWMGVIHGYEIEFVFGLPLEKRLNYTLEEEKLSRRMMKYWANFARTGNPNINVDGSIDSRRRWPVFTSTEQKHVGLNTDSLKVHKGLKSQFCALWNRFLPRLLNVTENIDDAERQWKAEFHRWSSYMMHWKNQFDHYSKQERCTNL
Sequence of Acetylcholinesterase (Homo sapiens, UniProt P22303) (P22303 whole entry): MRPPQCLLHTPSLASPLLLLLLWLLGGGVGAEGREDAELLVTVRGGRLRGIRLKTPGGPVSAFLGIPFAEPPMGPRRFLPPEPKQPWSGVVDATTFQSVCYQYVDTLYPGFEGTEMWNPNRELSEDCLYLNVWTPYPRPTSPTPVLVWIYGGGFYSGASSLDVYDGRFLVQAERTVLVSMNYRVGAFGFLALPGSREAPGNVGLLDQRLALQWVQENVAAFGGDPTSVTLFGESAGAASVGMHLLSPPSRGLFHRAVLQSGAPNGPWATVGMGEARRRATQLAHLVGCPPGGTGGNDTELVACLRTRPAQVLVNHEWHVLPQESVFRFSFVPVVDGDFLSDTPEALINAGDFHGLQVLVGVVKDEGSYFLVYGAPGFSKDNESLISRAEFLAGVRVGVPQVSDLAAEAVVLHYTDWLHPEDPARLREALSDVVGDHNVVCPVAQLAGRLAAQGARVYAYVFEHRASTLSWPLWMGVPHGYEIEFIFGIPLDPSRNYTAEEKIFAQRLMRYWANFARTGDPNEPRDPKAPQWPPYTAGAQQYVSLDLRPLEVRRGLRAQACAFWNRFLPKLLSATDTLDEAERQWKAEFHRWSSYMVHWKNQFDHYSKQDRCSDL

`CC[C@@]1(c2cccc(OC(=O)Nc3ccccc3)c2)CCCCN(C)C1`: the IC50 on Acetylcholinesterase [1] stood at 274 nM.

`CCOC(=O)Nc1ccc(N2CCN(c3ccccc3OC)CC2)cc1` had a concentration for half-maximal inhibition (IC50) against Acetylcholinesterase [2] of 93.5 nM.

On to `CN(C)C(=O)Oc1cc(OC(=O)N(C)C)cc(C(O)CNC(C)(C)C)c1` (configuration not stated) [BAMBUTEROL], for which the Ratio IC50 in assay [3] is 10000. Moreover, the IC50 came to 30000 nM against Acetylcholinesterase [4] and 3 nM at Butyrylcholinesterase [5].

For the compound `O=C(Oc1ccc(/C=C/c2cc(OC(=O)N3CCN(Cc4ccccc4)CC3)cc(OC(=O)N3CCN(Cc4ccccc4)CC3)c2)cc1)N1CCN(Cc2ccccc2)CC1`, the values for the IC50 on Butyrylcholinesterase [6] and at Acetylcholinesterase [7] were 1130 nM and 4110 nM, respectively.

Take `C#CCN(C)C(C)Cc1cccc(OC(=O)N(C)CC)c1` (configuration not stated): the results for the IC50 (in assay [8]; on Cholinesterase [10]; in assay [11]) were 120 nM, 1500 nM and 100 nM, respectively. The Ratio IC50 in [9] was found to be 153.

On to `O=C(Nc1ccccc1)Oc1cccc(CN2CCN(c3ccccc3)CC2)c1`, for which the half-maximal inhibitory concentration (IC50) at Cholinesterase [12] was 2000 nM.

The values are drawn from ChEMBL document CHEMBL5214927, “Recent advance on carbamate-based cholinesterase inhibitors as potential multifunctional agents against Alzheimer's disease” (Eur J Med Chem, 2022).
